Source: PubChem BioAssay (NCI)
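Method: 48-hour compound exposure of cells in 96-well plates, five concentrations, linear interpolation of endpoints. TGI: concentration producing complete growth inhibition.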

Key:
Assay in all cases: inhibition of tumour cell growth, NCI panel, 48 h
UACC-257 melanoma = test system: UACC-257 melanoma
SK-MEL-2 melanoma = test system: SK-MEL-2 melanoma
786-0 renal = test system: 786-0 renal
SF-539 CNS = test system: SF-539 CNS
DU-145 prostate = test system: DU-145 prostate
HCT-15 colon = test system: HCT-15 colon
NCI/ADR-RES ovarian = test system: NCI/ADR-RES ovarian
HCC-2998 colon = test system: HCC-2998 colon
NCI-H23 lung = test system: NCI-H23 lung
SK-MEL-28 melanoma = test system: SK-MEL-28 melanoma
SF-295 CNS = test system: SF-295 CNS
MOLT-4 leukemia = test system: MOLT-4 leukemia
M14 melanoma = test system: M14 melanoma
SNB-19 CNS = test system: SNB-19 CNS
T-47D breast = test system: T-47D breast
MDA-MB-231 breast = test system: MDA-MB-231 breast
RPMI-8226 leukemia = test system: RPMI-8226 leukemia
IGROV1 ovarian = test system: IGROV1 ovarian
HT29 colon = test system: HT29 colon
OVCAR-4 ovarian = test system: OVCAR-4 ovarian
UACC-62 melanoma = test system: UACC-62 melanoma
SNB-75 CNS = test system: SNB-75 CNS
MCF7 breast = test system: MCF7 breast
OVCAR-8 ovarian = test system: OVCAR-8 ovarian
SN12C renal = test system: SN12C renal
SK-OV-3 ovarian = test system: SK-OV-3 ovarian
KM12 colon = test system: KM12 colon
HS 578T breast = test system: HS 578T breast
MDA-N = test system: MDA-N
OVCAR-5 ovarian = test system: OVCAR-5 ovarian
U251 CNS = test system: U251 CNS
TK-10 renal = test system: TK-10 renal
EKVX NSCLC = test system: EKVX NSCLC
COLO 205 colon = test system: COLO 205 colon
SK-MEL-5 melanoma = test system: SK-MEL-5 melanoma
HOP-62 NSCLC = test system: HOP-62 NSCLC
SF-268 CNS = test system: SF-268 CNS
HOP-92 NSCLC = test system: HOP-92 NSCLC
K-562 leukemia = test system: K-562 leukemia
HCT-116 colon = test system: HCT-116 colon
RXF 393 renal = test system: RXF 393 renal
MDA-MB-435 = test system: MDA-MB-435
A498 renal = test system: A498 renal
NCI-H226 lung = test system: NCI-H226 lung
OVCAR-3 ovarian = test system: OVCAR-3 ovarian
NCI-H460 lung = test system: NCI-H460 lung
CCRF-CEM leukemia = test system: CCRF-CEM leukemia
SW-620 colon = test system: SW-620 colon
A549 NSCLC = test system: A549 NSCLC
ACHN renal = test system: ACHN renal
UO-31 renal = test system: UO-31 renal
SR leukemia = test system: SR leukemia
MALME-3M melanoma = test system: MALME-3M melanoma
PC-3 prostate = test system: PC-3 prostate
NCI-H522 lung = test system: NCI-H522 lung
CAKI-1 renal = test system: CAKI-1 renal
HL-60(TB) leukemia = test system: HL-60(TB) leukemia
LOX IMVI melanoma = test system: LOX IMVI melanoma
BT-549 breast = test system: BT-549 breast

Measured: TGI

COc1ccc(/C=C2/SC(=Nc3ccccc3)N(NC(=O)Cc3ccccc3)C2=O)c(OC)c1
67.4 µM: HOP-92 NSCLC
not listed: SR leukemia | MALME-3M melanoma | PC-3 prostate | NCI-H522 lung | CAKI-1 renal | HL-60(TB) leukemia | LOX IMVI melanoma | BT-549 breast
> 100 µM: all other assays above

O=C1CCC2(CC1CCS(=O)c1ccccc1)OCCO2 (stereo not given)
not listed: SN12C renal | HCT-116 colon | BT-549 breast
> 100 µM: all other assays above

O=C1c2cn[nH]c2N=C(Nc2ccccc2)C1N=Cc1ccc([N+](=O)[O-])cc1 (stereo not given)
not listed: SK-MEL-2 melanoma | HCT-15 colon | NCI/ADR-RES ovarian | SK-MEL-28 melanoma | T-47D breast | MDA-MB-231 breast | RPMI-8226 leukemia | IGROV1 ovarian | UACC-62 melanoma | SK-OV-3 ovarian | COLO 205 colon | HOP-62 NSCLC | HOP-92 NSCLC | RXF 393 renal | A498 renal | SW-620 colon | CAKI-1 renal
> 10 µM: all other assays above

CNC(=O)N1CN(c2ccccc2)C2(CCN(Cc3ccccc3)CC2)C1=O
46.8 µM: MOLT-4 leukemia
52.3 µM: SR leukemia
11 µM: T-47D breast
64.1 µM: OVCAR-5 ovarian
39.8 µM: HCC-2998 colon
51.3 µM: NCI/ADR-RES ovarian
not listed: SK-MEL-2 melanoma | OVCAR-4 ovarian | HS 578T breast | HOP-92 NSCLC | MDA-MB-435 | A498 renal | NCI-H460 lung | BT-549 breast
> 100 µM: all other assays above
